Test results taken from PubChem BioAssay (NCI).
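Results reflect a 48-hour exposure of cells in 96-well plates to compound at five concentrations. Abbreviation: GI50, concentration required for 50% inhibition of growth. Definition used: TGI = concentration required for complete inhibition of growth.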

Columns and labels:
Assay in all cases: growth of human tumour cells (NCI), 48 h
[1] = test system: OVCAR-8 ovarian
[2] = test system: NCI-H226 lung
[3] = test system: A498 renal
[4] = test system: A549 NSCLC
[5] = test system: SK-MEL-2 melanoma
[6] = test system: NCI-H522 lung
[7] = test system: RPMI-8226 leukemia
[8] = test system: COLO 205 colon
[9] = test system: UACC-257 melanoma
[10] = test system: SK-MEL-28 melanoma
[11] = test system: HS 578T breast
[12] = test system: UO-31 renal
[13] = test system: HT29 colon
[14] = test system: SF-295 CNS
[15] = test system: MOLT-4 leukemia
[16] = test system: T-47D breast
[17] = test system: NCI/ADR-RES ovarian
[18] = test system: TK-10 renal
[19] = test system: HL-60(TB) leukemia
[20] = test system: UACC-62 melanoma
[21] = test system: EKVX NSCLC
[22] = test system: DU-145 prostate
[23] = test system: OVCAR-4 ovarian
[24] = test system: M14 melanoma
[25] = test system: CCRF-CEM leukemia
[26] = test system: BT-549 breast
[27] = test system: KM12 colon
[28] = test system: HOP-62 NSCLC
[29] = test system: SNB-75 CNS
[30] = test system: HCT-116 colon
[31] = test system: HOP-92 NSCLC
[32] = test system: MCF7 breast
[33] = test system: CAKI-1 renal
[34] = test system: K-562 leukemia
[35] = test system: SW-620 colon
[36] = test system: NCI-H460 lung
[37] = test system: RXF 393 renal
[38] = test system: HCT-15 colon
[39] = test system: LOX IMVI melanoma
[40] = test system: HCC-2998 colon
[41] = test system: SN12C renal
[42] = test system: NCI-H23 lung
[43] = test system: 786-0 renal
[44] = test system: SK-MEL-5 melanoma
[45] = test system: SK-OV-3 ovarian
[46] = test system: MDA-MB-435
[47] = test system: SF-539 CNS
[48] = test system: SF-268 CNS
[49] = test system: OVCAR-5 ovarian
[50] = test system: ACHN renal
[51] = test system: OVCAR-3 ovarian
[52] = test system: U251 CNS
[53] = test system: SNB-19 CNS
[54] = test system: PC-3 prostate
[55] = test system: MDA-MB-231 breast
[56] = test system: IGROV1 ovarian
[57] = test system: MALME-3M melanoma

With `c1ccc2nc(N/N=C3\CCCCC3C3CCCCC3)ccc2c1` (stereo unspecified) the GI50 [1] was 11.2 µM, the TGI [1] was 29 µM and the GI50 [2] was 6.3 µM. The TGI [2] was 22.9 µM, the GI50 [3] was 11.4 µM and the TGI [3] was 27.9 µM. For the same compound, the GI50 [4] was 6.26 µM, the TGI [4] was 29.1 µM and the GI50 [5] was 3.48 µM. It also gave a TGI [5] of 16.6 µM, a GI50 [6] of 4.97 µM and a TGI [6] of 20.4 µM. It also gave a GI50 [7] of 2.02 µM, a TGI [7] of 4.76 µM and a GI50 [8] of 3.26 µM. For the same compound, the TGI [8] was 12.7 µM, the GI50 [9] was 10.3 µM and the TGI [9] was 27.5 µM. For the same compound, the GI50 [10] was 10.9 µM, the TGI [10] was 24.9 µM and the GI50 [11] was 10.4 µM. For the same compound, the TGI [11] was 30.9 µM, the GI50 [12] was 2.89 µM and the TGI [12] was 14.4 µM. It also gave a GI50 [13] of 3.7 µM, a TGI [13] of 14.6 µM and a GI50 [14] of 2.4 µM. The TGI [14] was 11.8 µM, the GI50 [15] was 3.2 µM and the TGI [15] was 17.1 µM. For the same compound, the GI50 [16] was 4.33 µM, the TGI [16] was 21.8 µM and the GI50 [17] was 5.29 µM. For the same compound, the TGI [17] was 21 µM, the GI50 [18] was 6.72 µM and the TGI [18] was 19.5 µM. It also gave a GI50 [19] of 3.74 µM, a TGI [19] of 25.6 µM and a GI50 [20] of 3.89 µM. It also gave a TGI [20] of 15.6 µM, a GI50 [21] of 5.22 µM and a TGI [21] of 20.2 µM. The GI50 [22] was 11.9 µM, the TGI [22] was 24.8 µM and the GI50 [23] was 3.9 µM. The TGI [23] was 22.8 µM, the GI50 [24] was 10.3 µM and the TGI [24] was 26.5 µM. For the same compound, the GI50 [25] was 2.83 µM, the TGI [25] was 14 µM and the GI50 [26] was 9.09 µM. It also gave a TGI [26] of 22.1 µM, a GI50 [27] of 4.27 µM and a TGI [27] of 15.7 µM. It also gave a GI50 [28] of 11.8 µM, a TGI [28] of 25.7 µM and a GI50 [29] of 11.1 µM. For the same compound, the TGI [29] was 30.9 µM, the GI50 [30] was 3.32 µM and the TGI [30] was 13.5 µM. It also gave a GI50 [31] of 2.2 µM, a TGI [31] of 10 µM and a GI50 [32] of 2.46 µM. It also gave a TGI [32] of 11.7 µM, a GI50 [33] of 4.78 µM and a TGI [33] of 25.3 µM. For the same compound, the GI50 [34] was 4.85 µM, the TGI [34] was greater than 100 µM and the GI50 [35] was 4.12 µM. For the same compound, the TGI [35] was 16.3 µM, the GI50 [36] was 3.84 µM and the TGI [36] was 16.5 µM. For the same compound, the GI50 [37] was 9.21 µM, the TGI [37] was 26.9 µM and the GI50 [38] was 3.52 µM. The TGI [38] was 14.8 µM, the GI50 [39] was 3.25 µM and the TGI [39] was 13.1 µM. For the same compound, the GI50 [40] was 3.46 µM, the TGI [40] was 14 µM and the GI50 [41] was 6.54 µM. For the same compound, the TGI [41] was 21.1 µM, the GI50 [42] was 3.89 µM and the TGI [42] was 17.3 µM. The GI50 [43] was 7.12 µM, the TGI [43] was 21.6 µM and the GI50 [44] was 2.58 µM. For the same compound, the TGI [44] was 10.4 µM, the GI50 [45] was 14.8 µM and the TGI [45] was 34.3 µM. It also gave a GI50 [46] of 6.95 µM, a TGI [46] of 21.3 µM and a GI50 [47] of 7.69 µM. The TGI [47] was 21.4 µM, the GI50 [48] was 10.8 µM and the TGI [48] was 24.9 µM. It also gave a GI50 [49] of 8.27 µM, a TGI [49] of 21.5 µM and a GI50 [50] of 8.02 µM. It also gave a TGI [50] of 20.8 µM, a GI50 [51] of 13.9 µM and a TGI [51] of 27 µM. It also gave a GI50 [52] of 6.44 µM, a TGI [52] of 20.8 µM and a GI50 [53] of 11.4 µM. For the same compound, the TGI [53] was 24.6 µM, the GI50 [54] was 3.07 µM and the TGI [54] was 17.6 µM. It also gave a GI50 [55] of 5.49 µM, a TGI [55] of 20.5 µM and a GI50 [56] of 2.92 µM. For the same compound, the TGI [56] was 15.4 µM, the GI50 [57] was 2.36 µM and the TGI [57] was 12.9 µM.

In the case of `Cc1cc(Cl)ccc1OCc1nn2c(CCCCc3nnc4sc(COc5ccc(Cl)cc5C)nn34)nnc2s1`, the GI50 [1] is reported as 8.99 µM, the TGI [1] is reported as greater than 83.1 µM and the GI50 [2] is reported as 21.8 µM. For the same compound, the TGI [2] was 74.5 µM, the GI50 [3] was 1.67 µM and the TGI [3] was 8.21 µM. For the same compound, the GI50 [4] was 27 µM, the TGI [4] was greater than 100 µM and the GI50 [5] was greater than 63.4 µM. It also gave a TGI [5] greater than 89.5 µM, a GI50 [6] of 20.8 µM and a TGI [6] of 61.7 µM. The GI50 [7] was 18.9 µM, the TGI [7] was greater than 100 µM and the GI50 [8] was 43.5 µM. The TGI [8] was greater than 100 µM, the GI50 [9] was 8.41 µM and the TGI [9] was greater than 100 µM. For the same compound, the GI50 [10] was 52.7 µM, the TGI [10] was greater than 100 µM and the GI50 [11] was 0.544 µM. The GI50 [12] was 14.5 µM, the TGI [12] was greater than 100 µM and the GI50 [13] was 43.6 µM. The TGI [13] was greater than 100 µM, the GI50 [14] was 8.28 µM and the TGI [14] was 76.2 µM. It also gave a GI50 [15] of 25.5 µM, a TGI [15] greater than 100 µM and a GI50 [16] of 14.6 µM. For the same compound, the TGI [16] was 57.2 µM, the GI50 [17] was 23 µM and the TGI [17] was 74 µM. For the same compound, the GI50 [18] was 26.2 µM, the TGI [18] was 74.2 µM and the GI50 [19] was greater than 94.2 µM. The TGI [19] was greater than 100 µM, the GI50 [20] was 22.6 µM and the TGI [20] was greater than 100 µM. The GI50 [21] was 11.3 µM, the TGI [21] was greater than 76.2 µM and the GI50 [22] was 13.9 µM. For the same compound, the TGI [22] was greater than 100 µM, the GI50 [23] was 21.2 µM and the TGI [23] was greater than 69.6 µM. For the same compound, the GI50 [24] was 45.9 µM, the TGI [24] was greater than 100 µM and the GI50 [25] was 33.7 µM. The TGI [25] was greater than 61.6 µM, the GI50 [26] was 11.6 µM and the TGI [26] was 51.8 µM. The GI50 [27] was 17.2 µM, the TGI [27] was greater than 100 µM and the GI50 [28] was 32.2 µM. For the same compound, the TGI [28] was 58.5 µM, the GI50 [29] was 13.8 µM and the TGI [29] was 51 µM. It also gave a GI50 [30] of 32.2 µM, a TGI [30] greater than 81 µM and a GI50 [31] of 34.2 µM. It also gave a TGI [31] greater than 68.8 µM, a GI50 [32] of 21.9 µM and a TGI [32] greater than 73.2 µM. For the same compound, the GI50 [33] was 4.52 µM, the TGI [33] was greater than 55.3 µM and the GI50 [34] was greater than 73.2 µM. The TGI [34] was greater than 100 µM, the GI50 [35] was 3.48 µM and the TGI [35] was greater than 41 µM. For the same compound, the GI50 [36] was 24.7 µM, the TGI [36] was greater than 93.6 µM and the GI50 [37] was 18 µM. It also gave a TGI [37] of 62.8 µM, a GI50 [38] of 47.1 µM and a TGI [38] greater than 100 µM. The GI50 [39] was 28.2 µM, the TGI [39] was greater than 100 µM and the GI50 [40] was 30.2 µM. For the same compound, the TGI [40] was greater than 100 µM, the GI50 [41] was 37.8 µM and the TGI [41] was greater than 100 µM. For the same compound, the GI50 [42] was 29.8 µM, the TGI [42] was greater than 100 µM and the GI50 [43] was 26.7 µM. The TGI [43] was 55.5 µM, the GI50 [44] was 1.68 µM and the TGI [44] was 9.75 µM. For the same compound, the GI50 [45] was 35.4 µM, the TGI [45] was 73.1 µM and the GI50 [46] was 7.12 µM. It also gave a TGI [46] greater than 57.8 µM, a TGI [47] of 1.47 µM and a GI50 [48] of 23 µM. For the same compound, the TGI [48] was greater than 76.7 µM, the GI50 [49] was greater than 100 µM and the TGI [49] was greater than 100 µM. For the same compound, the GI50 [50] was 34.1 µM, the TGI [50] was greater than 100 µM and the GI50 [51] was 7.99 µM. For the same compound, the TGI [51] was 72.2 µM, the GI50 [52] was 25.3 µM and the TGI [52] was greater than 74.7 µM. It also gave a GI50 [53] of 48.9 µM, a TGI [53] greater than 80.4 µM and a GI50 [54] of 22.4 µM. It also gave a TGI [54] greater than 80.1 µM, a GI50 [55] of 17.7 µM and a TGI [55] greater than 78.6 µM. It also gave a GI50 [56] of 28.4 µM, a TGI [56] greater than 100 µM and a GI50 [57] of 29.2 µM. For the same compound, the TGI [57] was greater than 86.1 µM.
